Source: paper PMC8386742, “Discovery of N-aryl sulphonamide-quinazoline derivatives as anti-gastric cancer agents in vitro and in vivo via activating the Hippo signalling pathway” (Journal of Enzyme Inhibition and Medicinal Chemistry, 2021)

Experiments:
PC-3 cells = assay: MTT antiproliferative assay, PC-3 cells; format: cell-based, human; details: Homo sapiens, PC-3, exposure for 48 h
Procedure: (§1) The in vitro antiproliferative activities of new target compounds 6a–6g, 9a–9i, 10a–10j, 11a–11j, and 14a–14d were evaluated against four human cancer cell lines (MGC-803, PC-3, HCT-116, and MCF-7) using MTT assay and 5-FU as a positive drug. The following Tables 1–[4] depicted the results of in vitro antiproliferative activity.
(§2) Cell lines used were cultured in humidified incubator in a humidified atmosphere of 5% CO2 and 95% air. The RPMI-1640 medium was supplemented with 10% foetal bovine serum, penicillin (100 U/ml) and streptomycin (0.1 mg/ml).
(§3) Cell lines were seeded into 96-well plates and incubated for 24 h. Then cells were treated with different concentrations of compounds. And after another 48 h, MTT reagent (20 μL per well) was added to each well and then incubated at 37 °C for 4 h. After the suspension was discarded, formazan was then dissolved with DMSO. Absorbencies of formazan solution were measured at 490 nm. The IC50 values of tested compounds were calculated by SPSS version 17.0.

HCT-116 cells = assay: MTT antiproliferative assay, HCT-116 cells; format: cell-based, human; details: Homo sapiens, HCT-116, 48 h, exposure for 48 h
Procedure: as §1, §2, §3

MGC-803 cells = assay: MTT antiproliferative assay, MGC-803 cells; format: cell-based, human; details: exposure for 48 h
Procedure: as §1, §2, §3

MCF-7 cells = assay: MTT antiproliferative assay, MCF-7 cells; format: cell-based, human; details: Homo sapiens, MCF7, 48 h, exposure for 48 h
Procedure: as §1, §2, §3

Structure (SMILES)	IC50 (PC-3 cells) [µM]	IC50 (HCT-116 cells) [µM]	melting point [°C]	IC50 (MGC-803 cells; Homo sapiens, MGC-803, 48 h) [µM]	IC50 (MCF-7 cells) [µM]	IC50 (MGC-803 cells) [µM]
COc1ccc(S(=O)(=O)N(Cc2ccccc2)c2cc(OC)c(OC)c(OC)c2)cc1 [Compound 9a, N-benzyl-4-methoxy-N-(3,4,5-trimethoxyphenyl) benzene-sulfonamide]	16.2 ± 1.06	18.8 ± 1.72	161 to 162	8.57 ± 1.62	24.5 ± 0.61	
COc1ccc(S(=O)(=O)N(Cc2ccc(Cl)cc2)c2cc(OC)c(OC)c(OC)c2)cc1 [Compound 9b, N-(4-chlorobenzyl)-4-methoxy-N-(3,4,5-trimethoxyphenyl) benzene-sulphonamide]	36.1 ± 0.01	23 ± 5.25	172 to 173	19.2 ± 1.07	23.4 ± 1.53	
COc1ccc(S(=O)(=O)N(Cc2ccc(Br)cc2)c2cc(OC)c(OC)c(OC)c2)cc1 [Compound 9c, N-(4-bromobenzyl)-4-methoxy-N-(3,4,5-trimethoxyphenyl) benzene-sulphonamide]	28 ± 2.76	> 50	187 to 188	31.1 ± 0.79	33.8 ± 1.39	
COc1ccc(S(=O)(=O)N(Cc2ccc(C)cc2)c2cc(OC)c(OC)c(OC)c2)cc1 [Compound 9d, 4-Methoxy-N-(4-methylbenzyl)-N-(3,4,5-trimethoxyphenyl) benzene-sulphonamide]	15.6 ± 1.57	11.9 ± 2.26	164 to 165	5.83 ± 1.75	41.8 ± 0.43	
COc1ccc(S(=O)(=O)N(Cc2ccc(OC)c(OC)c2)c2cc(OC)c(OC)c(OC)c2)cc1 [Compound 9e, N-(3,4-dimethoxybenzyl)-4-methoxy-N-(3,4,5-trimethoxyphenyl) benzene-sulphonamide]	10.2 ± 0.52	8.6 ± 2.85	136 to 137	7.92 ± 2.26	22.9 ± 1.82	
COc1ccc(S(=O)(=O)N(Cc2cccnc2)c2cc(OC)c(OC)c(OC)c2)cc1 [Compound 9f, 4-Methoxy-N-(pyridin-3-ylmethyl)-N-(3,4,5-trimethoxyphenyl) benzene-sulphonamide]	11.3 ± 1.11	6.92 ± 0.79	158 to 159	1.31 ± 0.08	6.31 ± 1.11	
COc1cc(N(Cc2nc(C)c3ccccc3n2)S(=O)(=O)c2ccccc2)cc(OC)c1OC [Compound 10a, N-((4-methylquinazolin-2-yl)methyl)-N-(3,4,5-trimethoxyphenyl) benzene-sulphonamide]	28.2 ± 2.12	16.7 ± 1.03	178 to 179	6.62 ± 0.82	> 50	
COc1cc(N(Cc2nc(C)c3ccccc3n2)S(=O)(=O)c2ccc(F)cc2)cc(OC)c1OC [Compound 10b, 4-Fluoro-N-((4-methylquinazolin-2-yl)methyl)-N-(3,4,5-trimethoxyphenyl) benzene-sulfonamide]	4.72 ± 1.02	3.84 ± 0.14	162 to 163	0.92 ± 1.07	5.46 ± 0.87	
COc1cc(N(Cc2nc(C)c3ccccc3n2)S(=O)(=O)c2ccc(Br)cc2)cc(OC)c1OC [Compound 10c, 4-Bromo-N-((4-methylquinazolin-2-yl)methyl)-N-(3,4,5-trimethoxyphenyl) benzene-sulfonamide]	1.81 ± 0.26	1.49 ± 0.22	170 to 171	0.82 ± 0.11	1.4 ± 0.25	
COc1cc(N(Cc2nc(C)c3ccccc3n2)S(=O)(=O)c2ccccc2Cl)cc(OC)c1OC [Compound 10d, 2-Chloro-N-((4-methylquinazolin-2-yl)methyl)-N-(3,4,5-trimethoxyphenyl) benzene-sulfonamide]	> 50	18.7 ± 1.27	183 to 184	> 50	22.1 ± 0.31	
COc1cc(N(Cc2nc(C)c3ccccc3n2)S(=O)(=O)c2ccc(C)cc2)cc(OC)c1OC [Compound 10e, 4-Methyl-N-((4-methylquinazolin-2-yl)methyl)-N-(3,4,5-trimethoxyphenyl) benzene-sulfonamide]	4.01 ± 0.07	2.48 ± 0.12	182 to 183	1.04	1.68 ± 0.12	1 ± 0.08
COc1cc(N(Cc2nc(C)c3ccccc3n2)S(=O)(=O)c2c(C)cc(C)cc2C)cc(OC)c1OC [Compound 10f, 2,4,6-Trimethyl-N-((4-methylquinazolin-2-yl)methyl)-N-(3,4,5-trimethoxyphenyl) benzene-sulfonamide]	> 50	> 50	154 to 155	> 50	> 50	
COc1cc(N(Cc2nc(C)c3ccccc3n2)S(=O)(=O)c2ccc(C(C)(C)C)cc2)cc(OC)c1OC [Compound 10g, 4-(Tert-butyl)-N-((4-methylquinazolin-2-yl)methyl)-N-(3,4,5-trimethoxyphenyl) benzene-sulfonamide]	18.9 ± 1.57	22.4 ± 1.67	144 to 145	12.8 ± 1.38	28.1 ± 1.82	
COc1ccc(S(=O)(=O)N(Cc2nc(C)c3ccccc3n2)c2cc(OC)c(OC)c(OC)c2)cc1OC [Compound 10h, 3,4-Dimethoxy-N-((4-methylquinazolin-2-yl)methyl)-N-(3,4,5-trimethoxyphenyl)benzene-sulfonamide]	36.6 ± 0.34	22.9 ± 1.34	129 to 130	14.2 ± 1.03	18.5 ± 0.81	
COc1cc(N(Cc2nc(C)c3ccccc3n2)S(=O)(=O)c2cccs2)cc(OC)c1OC [Compound 10i, N-((4-Methylquinazolin-2-yl)methyl)-N-(3,4,5-trimethoxyphenyl)thiophene-2-sulphonamide]	27.8 ± 2.02	20.4 ± 1.92	151 to 152	16.8 ± 1.42	30.2 ± 1.81	
COc1cc(N(Cc2nc(C)c3ccccc3n2)S(=O)(=O)c2ccccn2)cc(OC)c1OC [Compound 10j, N-((4-Methylquinazolin-2-yl)methyl)-N-(3,4,5-trimethoxyphenyl)pyridine-2-sulphonamide]	28.2 ± 1.98	24.8 ± 2.13	159 to 160	14.7 ± 1.88	34.2 ± 1.83	
COc1cc(N(Cc2nc(C)c3ccccc3n2)C(=O)c2ccccc2)cc(OC)c1OC [Compound 11a, N-((4-Methylquinazolin-2-yl)methyl)-N-(3,4,5-trimethoxyphenyl) benzamide]	25.3 ± 1.78	19.8 ± 1.49	112 to 113	18.5 ± 1.17	25.3 ± 1.78	
COc1cc(N(Cc2nc(C)c3ccccc3n2)C(=O)c2ccc(F)cc2)cc(OC)c1OC [Compound 11b, 4-Fluoro-N-((4-methylquinazolin-2-yl)methyl)-N-(3,4,5-trimethoxyphenyl) benzamide]	31.1 ± 2.04	18.9 ± 1.23	162 to 163	14.1 ± 1.01	29.7 ± 1.83	
COc1cc(N(Cc2nc(C)c3ccccc3n2)C(=O)c2ccc(Br)cc2)cc(OC)c1OC [Compound 11c, 4-Bromo-N-((4-methylquinazolin-2-yl)methyl)-N-(3,4,5-trimethoxyphenyl) benzamide]	26.8 ± 1.32	20.4 ± 1.23	182 to 183	13.6 ± 1.24	28.1 ± 1.47	
COc1cc(N(Cc2nc(C)c3ccccc3n2)C(=O)c2ccccc2Cl)cc(OC)c1OC [Compound 11d, 2-Chloro-N-((4-methylquinazolin-2-yl)methyl)-N-(3,4,5-trimethoxyphenyl) benzamide]	> 40	> 40	190 to 191	> 40	> 40	
